In test [1] the test system is Glioblastoma multiforme. The experiment in a line: Phase II study with ZOLADEX (Example 7). In kind it is in vivo, human. As to the method:
Patients with histologically confirmed Glioblastoma multiforme following a first operation were treated (also randomized controlled) with ZOLADEX® in the manner described by Jonat et al., 1995, European J. Cancer, 137-142. Following radiotherapy, the patients are assigned to two different groups. One group received treatment, for example with ZOLADEX® and one group without ZOLADEX® (or with Cetrorelix® and without Cetrorelix®, or with ANTIDE® and without ANTIDE®, or with […]® or without […]® etc.). The resulting clinical effects are similar to metastasized […] mammary carcinoma. The percentage of patients showing an actual significant therapy effect is evaluated according to the criteria of tumor volume, recidivation-free survival, overall survival following initial application of the compound, and Karnofsky and Spitzer indices in a clinical neurological examination and under consideration of the other examination criteria (Sposto, R., et al., 1989, J. Neurooncology, 7, 165-177, and Kirby, S., et al., 1995, J. Natl. Cancer Institute, 87, 1884-1888, 1995).

The subject of test [2] is BLM melanoma cells. The experiment in a line: Cell proliferation studies, BLM cells. Type of test: cell-based, human. Conditions: 10^−11-10^−6 M, daily for 7 days. The procedure: BLM cells were plated at a density of 700 cells/cm^2 in […] in culture medium. Cells were allowed to attach and start growing for 3 days; the seeding media were then changed. Cells were treated daily (the drug was added to the medium every day), for 7 days, with LHRH-A (10^−11-10^−6 M); the medium was changed at every two days. At the end of the treatment, cells were collected and counted by hemocytometer.
To confirm the specificity of the action of LHRH-A on melanoma cell proliferation, it was investigated whether the effects of the LHRH agonist might be counteracted by a potent GnRH antagonist. A preliminary experiment was performed to select the dose of the GnRH antagonist (ANT) to be used. To this purpose, BLM cells were treated daily with ANT at different doses (10^−11-10^−6 M).) Cells were harvested and counted after 7 days of treatment. Subsequently, BLM cells were treated daily, for 7 days, with LHRH-A (10^−7 M), either in the absence or in the presence of ANT (10^−7 M). Cells were counted 7 days after the beginning of the treatment.
All proliferation experiments were performed in four to six replicates. The data obtained from three independent experiments were analyzed according to the Dunnett's test after one-way ANOVA.

Test [3] has as its system BLM melanoma cells. The experiment in a line: Matrigel gel assay (invasion). In kind it is cell-based, human. The following applies: 10^−6 M; 4, 8 and 12 days. As to the method:
This dose has been also used in previous papers analyzing the interaction between GnRH agonists and stimulatory growth factors in prostate cancer cells. Subconfluent BLM cells were collected by trypsinization, resuspended in culture medium and seeded in 20 μL (150,000 cells/drop) on the lid of a culture dish. The lid was then placed on a dish filled with 2 mL of culture medium and incubated at 37° C. for 48 h. Matrigel solution (80 μL, 2.7 mg/mL) was pipetted onto the bottom of wells of a 24-well culture dish, and left to set at 37° C. Cell aggregates were transferred over the cushion and then overlaid with additional 20 μL of Matrigel. The aggregates into Matrigel were covered with 400 μL culture medium in the absence or in the presence of LHRH-A (10^−6 M). The aggregates were then observed daily under a light microscope and at the end of the incubation time phase-contrast pictures of the aggregates were taken.

Test [4] concerns U-87MG cells. Type of test: cell-based, human. Conditions: for inhibition versus controls: 7 days. As to the method:
U-87MG cells were plated at a density of 1400 cells/cm^2 in […] in standard culture medium. Cells were allowed to attach and start growing for 3 days; the seeding media were then changed to experimental media. Cells were treated for 7 days with ZOLADEX® (10^−10-10^−6 M); medium was changed every two days. Following treatment, cells were collected and counted by hemocytometer. Data obtained from three independent experiments were analyzed according to the Dunnett's test after one-way ANOVA.

Like-named read-outs stand apart in the source and are kept apart here.

As to `CC(C)C[C@H](NC(=O)[C@@H](COC(C)(C)C)NC(=O)[C@H](Cc1ccc(O)cc1)NC(=O)[C@H](CO)NC(=O)[C@H](Cc1c[nH]c2ccccc12)NC(=O)[C@H](Cc1cnc[nH]1)NC(=O)[C@@H]1CCC(=O)N1)C(=O)N[C@@H](CCCNC(=N)N)C(=O)N1CCC[C@H]1C(=O)NNC(N)=O` [ZOLADEX®, D-Ser(tBu)^6Aza-Gly-LHRH], in test [1] (MRT and/or CAT scans), the “reduction in tumor volume vs untreated control group” value is “significantly higher reduction in tumor volume”. Besides, in test [1] (in vivo), the “overall survival following initial application vs untreated control group” value is given as “significantly longer overall survival” and the “recidivation-free survival vs untreated control group” value is on record as “significantly longer recidivation-free survival”. The cell proliferation result in test [2] was “significant and dose-dependent inhibition of cell proliferation”. For the same compound, the “migration of the cells through the Matrigel” value in test [3] was “completely abrogates”. Besides, the inhibition versus controls entry in test [4] (10^−6M) is “about 45%”. Besides, the inhibition versus controls entry in test [4] (10^−8M) is recorded as “about 23%”. The proliferation rate result in test [4] (significantly effective at 10^−8 to 10^−6 M) was “significant decrease of the proliferation rate”.

These data come from patent publication US8962558B2, “Methods for reducing GnRH-positive tumor cell proliferation using the GnRH antagonist IN3” (priority 1997, dated 2015).
